Experiments:
C57BL/6 mice = assay: Ethanol-induced working memory deficit (win-shift); format: in vivo; conditions: Ethanol 0.5 gm/kg i.p. ten minutes prior to testing
Experimental: Six month old male C57BL/6 mice were evaluated in the win-shift model in combination with treatment with ethanol, a non-specific memory suppressant, and AIT-082. Subjects were treated with saline (control) or AIT-082 (30 mg/kg. i.p.) 1 hour prior to testing. Ethanol was administered at a dose of 0.5 gm/kg i.p. ten minutes prior to testing.

PC12 cells = assay: Neuritogenesis in PC12 cells; format: cell-based, rat
Experimental: Much of the work performed in the characterization of the compounds of the present invention involved the use of PC12 cells. These cells are derived from a rat pheochromocytoma and when grown in the presence of NGF, extend neurites, cease cell division and assume many characteristics of sympathetic neurons. When cultured in the absence of nerve growth factor (NGF), few PC12 cells have neurites greater than one cell diameter. Addition of saturating concentrations of NGF for 48 hours stimulates neurite outgrowth in about 20-35% of the cells. Because they constitute a homogeneous population of neuronal-like cells, without contaminating astroglia type cells, it is possible to study the direct effects of the purine based compounds on neurite outgrowth in these cells.
Cells cultured in RPMI 1640 with 1.5% horse serum and 1.5% fetal bovine serum were re-plated onto poly-ornithine coated 24-well culture plates (2.5×10^4 cells per well). AIT-082 and NGF were added to the various cultures immediately upon plating. After 48 hours, medium was removed and the cells irnmediately fixed in 10% formalin and PBS for 10 minutes. Cells and neurites were counted within 2 days of fixation.
A neurite was defined as a process extending from the cell at least 1 cell body diameter in length and displaying a growth cone at its tip. For each treatment, 2 representative microscope fields were counted from each of 6 sister cultures receiving identical treatments. The total number of cells counted per well (approximately 100 cells) and the total number of cells containing neurites in each well were used to determine fraction of neurite-bearing cells. The mean values (±SEM) were then determined for each of the treatments. To facilitate comparison neurite outgrowth was expressed relative to the proportion of cells bearing neurites in the presence of NGF alone (NGF=100%). The effects of compounds with and without NGF were compared by analysis of variance (ANOVA) followed by Tukey's test for significance.
The results are shown in FIG. 3 where the curve represents different levels of AIT-082 plus saturating concentrations (40 ng/ml) NGF. The center horizontal line represents control values for cells cultured in the presence of 40 ng/ml NGF alone. Upper and lower horizontal lines are indicative of confidence limits of NGF alone as determined using standard statistical methods.

[1] = test system: cGMP levels in PC12 cells; assay: cGMP levels in PC12 cells (radioimmunoassay); format: cell-based, rat; conditions: NGF-primed PC12 cells
Experimental: Initially, PC-12 cells were primed with 40 ng/ml NGF for 3 days in low serum medium (1.5% horse serum+5% fetal calf serum). Cells were seeded onto assay plates in low serum medium containing 40 ng/ml NGF and incubated for 1 hour. The medium was changed to low arginine medium (80 μM) with no serum and NGF and papaverine ([…]) where indicated. Test compounds were added for the indicated time and the reaction was stopped by adding 5% TCA containing 10,000 dpm of ^3H-cGMP. cGMP was assayed by the radioimmunoassay method of Maurice (Mol. Pharmacol. 37: 671-681, 1990). TCA was purified by adding powdered charcoal (5 g) and filtering the mixture through Whatman #1 paper. This removed contaminants in the TCA that otherwise interfere with the radioimmunoassay (RIA) of cGMP.
It was necessary to purify the cGMP from cAMP and other contaminants before radioimmunoassay since these other materials can interfere with the assay. Briefly, the TCA solution was applied to Dowex columns (50W-8X, 200-400 mesh) and eluted. A neutral alumina column was then placed under each Dowex column. The cGMP was eluted from the Dowex columns into neutral alumina columns by adding 4 mL of 0.05 M HCl to each Dowex column. The neutral alumina columns were then sequentially rinsed with 2 ml of HCl, 4 mL water and finally with 0.2 M sodium acetate (pH 6.2). The cGMP collected for the RIA eluted in 1 ML of sodium acetate with a recovery between 50-65%. The cGMP was assayed using a Dupont RIA kit.

neocortical astrocytes = assay: NGF-like immunoreactivity in astrocyte culture medium (ELISA); format: cell-based, mouse; conditions: astrocytes incubated with different concentrations
Experimental: Astrocytes appear to proliferate in response to extracellular guanosine or guanosine triphosphate (GTP). GTP or guanosine may also stimulate the release of trophic factors from cultures of neocortical astrocytes from neonatal mouse brains. Astrocytes were incubated with different concentrations of guanosine or GTP respectively. Neurotrophin imunoreactivity in the culture medium from treated cells was then measured by ELISA.
Briefly, 96 well Falcon plates (Fisher) were coated with […] of sheep mono-specific anti-NGF IgG (affinity column purified) contained in 0.1M sodium carbonate buffer pH 9.6. After an overnight incubation at 4° C. blocking solution (PBS with 10% goat serum) was added to remove excess antibody. After a four hour incubation at room temperature the plates were washed three times with PBS containing 0.05% Tween 20. The conditioned media and standard 2.5S HPLC purified NGF were added and incubated overnight. The next day plates were washed 3 times with PBS-0.05% Tween 20. The secondary antibody, rabbit mono-specific anti-NGF IgG conjugated with β-galactosidase (Pierce-SPDP method) (1:500 dilution) was added. The plates were incubated overnight at 4° C. The next day the plates were washed 3 times with PBS-0.05% Tween 20. […]
The ELISA assay detected neurotrophins NGF and NT-3 with ahnost equal affinity and BDNF with 100 times less affinity. […]

rat cultured astrocytes [2] = assay: Release of radioactively labeled adenine-based purines from rat cultured astrocytes; format: cell-based; conditions: 300 μM, 1 hour
Experimental: The experiments were carried out on cultured astrocytes of rat hippocampus at the fourth day in vitro (DIV), obtained from primary cultures replated in 35 mm Petri dishes ([…] cells/dish) and preloaded with [^3H]-adenosine (5×10^−8 M for a specific activity of 20.0 Ci/mM) for 30 minutes at 37° C.
The effect of AIT-082 on the proportional release of radioactively labeled adenine nucleosides and nucleotides from rat cultured astrocytes is shown in FIGS. 29A and 29B. Culture medium collected during the first hour of the release was analyzed by high performance liquid chromatography (HPLC) and the radioactivity associated with the different adenine compounds was measured and expressed as a percentage of the total radioactivity released. The results are shown for ATP, ADP, and AMP in FIG. 29A, and for adenosine, inosine, and hypoxanthine in FIG. 29B.

rat cultured astrocytes [3] = assay: as above; format: cell-based; conditions: 300 μM
mice = assay: T-maze memory test with atropine co-administration; format: in vivo; conditions: AIT-082 30 mg/kg i.p. 2 hr prior; atropine 0.5 mg/kg i.p. 1/2 hour prior to testing, day 3
Experimental: To elucidate the mechanisms by which AIT-082 improves memory, attempts were made to block its actions by co-administration of the short-acting cholinergic antagonist atropine to mice and subjecting them to simple learning tests. Atropine reportedly has the ability to block the effects of physostigmine and THA. Mice were injected with AIT-082 (30 mg/kg) 2 hr prior to testing on days 1 through 4. Atropine (0.5 mg/kg) was injected ½ hour prior to testing or 1.5 hours after AIT-082 on day 3 only. All injections were i.p. After a reference run to determine where the reward was placed in a T-maze, the mice were retested to determine if they could remember the location of the reward. The percentage of correct responses is graphically represented in FIG. 2.

CCO [Ethanol, ethanol, reference compound]
Correct trials (mean number of correct responses per 10 trials ± S.E.) (C57BL/6 mice): 6.5 ± 26

Nc1nc2c(ncn2[C@@H]2O[C@H](COP(=O)(O)OP(=O)(O)OP(=O)(O)O)[C@@H](O)[C@H]2O)c(=O)[nH]1 [GTP, guanosine triphosphate, reference compound]
neurite outgrowth in the absence of NGF (PC12 cells; compound alone): elicited neurite outgrowth on its own | enhancement of NGF-induced neurite outgrowth (PC12 cells; in the presence of NGF, 48 hours): did enhance neuritogenesis in the presence of NGF | cGMP in PC12 cells [1]: did not increase levels of cGMP | NGF-like immunoreactivity in the culture medium (neocortical astrocytes): increased the amount of NGF-like immunoreactivity | ADP, proportional release (rat cultured astrocytes [2]): (17.8 ± 2.6) percentage of the total [^3H]-purines released | Adenosine, proportional release (rat cultured astrocytes [2]): (4.0 ± 0.5) percentage of the total [^3H]-purines released | Inosine, proportional release (rat cultured astrocytes [2]): (14.0 ± 1.7) percentage of the total [^3H]-purines released | ADP, radioactivity released in the culture medium (rat cultured astrocytes [3]; 1 hour): 2.10 ± 0.31 cpm × 10^3 | AMP, proportional release (rat cultured astrocytes [3]; 1 hour): (23.5 ± 2.4) percentage of the total [^3H]-purines released | AMP, radioactivity released in the culture medium (rat cultured astrocytes [3]; 1 hour): 2.76 ± 0.28 cpm × 10^3 | ATP, proportional release (rat cultured astrocytes [3]; 1 hour): (10.9 ± 1.1) percentage of the total [^3H]-purines released | ATP, radioactivity released in the culture medium (rat cultured astrocytes [3]; 1 hour): 1.28 ± 0.13 cpm × 10^3 | Adenosine, radioactivity released in the culture medium (rat cultured astrocytes [3]; 1 hour): 0.47 ± 0.06 cpm × 10^3 | Hypoxanthine, proportional release (rat cultured astrocytes [3]; 1 hour): (18.4 ± 2.6) percentage of the total [^3H]-purines released | Hypoxanthine, radioactivity released in the culture medium (rat cultured astrocytes [3]; 1 hour): 2.20 ± 0.31 cpm × 10^3 | Inosine, radioactivity released in the culture medium (rat cultured astrocytes [3]; 1 hour): 1.65 ± 0.2 cpm × 10^3 | ADP, proportional release (rat cultured astrocytes [3]; 3 hours): (8.6 ± 0.7) percentage of the total [^3H]-purines released | ADP, radioactivity released in the culture medium (rat cultured astrocytes [3]; 3 hours): 1.05 ± 0.09 cpm × 10^3 | AMP, proportional release (rat cultured astrocytes [3]; 3 hours): (40.0 ± 3.9) percentage of the total [^3H]-purines released | AMP, radioactivity released in the culture medium (rat cultured astrocytes [3]; 3 hours): 4.32 ± 0.48 cpm × 10^3 | ATP, proportional release (rat cultured astrocytes [3]; 3 hours): (4.4 ± 0.4) percentage of the total [^3H]-purines released | ATP, radioactivity released in the culture medium (rat cultured astrocytes [3]; 3 hours): 0.54 ± 0.05 cpm × 10^3 | Adenosine, proportional release (rat cultured astrocytes [3]; 3 hours): (2.5 ± 0.2) percentage of the total [^3H]-purines released | Adenosine, radioactivity released in the culture medium (rat cultured astrocytes [3]; 3 hours): 0.31 ± 0.02 cpm × 10^3 | Hypoxanthine, proportional release (rat cultured astrocytes [3]; 3 hours): (25.0 ± 3.7) percentage of the total [^3H]-purines released | Hypoxanthine, radioactivity released in the culture medium (rat cultured astrocytes [3]; 3 hours): 3.11 ± 0.45 cpm × 10^3 | Inosine, proportional release (rat cultured astrocytes [3]; 3 hours): (9.7 ± 1.2) percentage of the total [^3H]-purines released | Inosine, radioactivity released in the culture medium (rat cultured astrocytes [3]; 3 hours): 1.19 ± 0.19 cpm × 10^3

CN1[C@@H]2CC[C@H]1C[C@@H](OC(=O)C(CO)c1ccccc1)C2 (stereo partly drawn) [atropine]
effect of atropine on memory enhancement by AIT-082 (mice): blocked the memory enhancing activity of AIT-082

Source: US6338963B1, “Use of carbon monoxide dependent guanylyl cyclase modifiers to stimulate neuritogenesis” (NeoTherapeutics, Inc., priority 1994, dated 2002)
